Results reported in PubChem BioAssay AID2060351 (Molecular Pharmacology Branch, DTP, NCI, 2025).
Values joined by “and” are separate entries in the source; they are usually repeats but may differ in a detail not shown here. Identical values can stand only once.

Test system: 521955-158-R7-J2-PDC spheroids, viability % test/control
Assay: Anticancer human tumor 521955-158-R7-J2-PDC patient-derived pancreatic carcinoma cell line growth inhibition [TAK]
Settings: spheroids with HUVEC and MSC; for viability, T/C: stronger effect = lower value
Source text: Combinatorial screen of targeted agents with TAK-243 and ipatasertib in multi-cell type tumor spheroids
A high-throughput screen of multi-cell type tumor spheroids was designed to identify active combinations of targeted small molecules and TAK-243 or ipatasertib. Complex spheroids include a stromal component modeled by human endothelial cells (HUVEC) and fibroblasts modeled by human mesenchymal stem cells (MSCs). The concentration ranges selected for each drug and investigational agent were based upon clinically achievable concentrations if the clinical Cmax of the agent was known.
Compounds. The drugs and investigational agents: TAK-243 (785004), ipatasertib (767898), everolimus (733504), selumetinib (741078), bortezomib (756655), trametinib (758246), ixazomib (758254), vemurafenib (761431), dabrafenib (764134), sapanisertib (764658), alpelisib (765974), and copanlisib (816437), were obtained from the National Cancer Institute (NCI) Developmental Therapeutics Program Chemical Repository. The FDA-approved anticancer drug set is available from the NCI Developmental Therapeutics Program. […] The stock solutions were prepared in dimethyl sulfoxide (DMSO, Sigma-Aldrich, St. Louis, MO, cat. D2650) at 800-fold the tested concentration and stored at -70 degrees C prior to their use. All drugs and investigational agents were tested over a range starting from a high concentration at or near the clinical Cmax and decreasing in half-log increments. If the clinical Cmax for an agent had not been determined, the highest concentration tested was 10 microM.
NCI60 Cell Culture. NCI60 cell lines were obtained from the NCI Developmental Therapeutics Program Tumor Repository. For each lot of cells, the Repository performed Applied Biosystems AmpFLSTR Identifiler testing with PCR amplification to confirm consistency with the published Identifier STR profile for each cell line. Cells were kept in continuous culture for no more than 20 passages. The optimal seeding densities for each of the cell lines at each time point assessed were determined prior to performing the concentration response studies. Briefly, the NCI60 human tumor lines were grown as monolayers in RPMI 1640 medium supplemented with 10% FBS and 2 mmol/L L-glutamine.
An additional 2 lines were from the NCI60 cell line panel including melanomas, MALME-3M and SK-MEL-2. Pooled donor human umbilical vein endothelial cells (HUVEC, Lonza, cat. CC-2519) and human mesenchymal stem cells (hMSC, Lonza, cat. PT-2501) were purchased from Lonza (Walkersville, MD).
PDMR cell lines were grown in complete medium (DC medium): Dulbecco's modified Eagle's medium (DMEM)/F12 supplemented with 5% fetal bovine serum (FBS), 2 mM L-glutamine, 100 U/mL penicillin and 100 µg/ml streptomycin, 0.4 µg/ml hydrocortisone, 10 ng/ml epidermal growth factor (EGF) recombinant human protein, 24 µg/mL adenine, and 0.1 mg/mL primocin. During culture from frozen stock vials, PDMR cells were cultured in the same medium containing 10 µM Y-27632 (see Table 3). The PDCs were cultured in complete DMEM/F12 media without 10 microM Y-27632 dihydrochloride for at least two passages prior to the screen. The pooled donor HUVEC and hMSC were cultured in endothelial cell growth medium 2 (PromoCell, Heidelberg, Germany, cat. C-22011) and mesenchymal stem cell growth medium 2 (PromoCell, cat. C-28009), respectively. For all experiments, HUVEC and hMSC were used at passages </=5.
For the pre-screen, cell seeding densities were determined from a titration spanning the range from 5,000 to 313 cells per well. The mct-spheroids including 60% malignant cells, 25% HUVEC and 15% MSC dispensed as a mixture into U-bottom Ultra-Low Attachment 384-well plates (Corning, NY)
High-throughput Drug Combination Screening.
Prior to their inoculation into 384-well plates, malignant cells, HUVEC, and hMSC were removed from T flasks using TrypLE express (Thermo Fisher Scientific, cat. 12605036) and harvested by centrifugation for 5 min at 233 x g. […]
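Further: spheroids exposed to compound for 7 days before readout.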

IC50 (curve of compound) | Structure (SMILES) | viability, T/C (compound 0.0316 µM) | viability, T/C (compound 0.1 µM) | viability, T/C (compound 0.316 µM) | viability, T/C (compound 1 µM) | viability, T/C (compound 0.000316 µM) | viability, T/C (compound 0.001 µM) | viability, T/C (compound 0.00316 µM) | viability, T/C (compound 0.01 µM) | also measured
1.89 nM and 1.25 nM | CC(=O)Nc1cccc(-n2c(=O)n(C3CC3)c(=O)c3c(Nc4ccc(I)cc4F)n(C)c(=O)c(C)c32)c1 | – | – | – | – | – | – | – | – | viability, T/C (compound 94.9 pM): 97.3% and 89.9%; viability, T/C (compound 0.0003 µM): 67.1% and 65.7%; viability, T/C (compound 0.000949 µM): 57.9% and 54.9%; viability, T/C (compound 0.003 µM): 48.7% and 39.5%; viability, T/C (compound 0.00949 µM): 32.1% and 27.2%; viability, T/C (compound 0.03 µM): 19.2% and 16.3%
> 10000 nM | CC(C)(C)c1nc(-c2cccc(NS(=O)(=O)c3c(F)cccc3F)c2F)c(-c2ccnc(N)n2)s1 | 105% and 103% | 113% and 78.3% | 99% and 128% | 101% and 131% | – | – | – | – | viability, T/C (compound 3.16 µM): 104% and 97.7%; viability, T/C (compound 10 µM): 79% and 93.3%
> 100 nM | CC(C)n1nc(-c2ccc3oc(N)nc3c2)c2c(N)ncnc21 | 76% and 109% | 71.2% and 53.7% | – | – | 78.4% and 94.7% | 79.4% and 104% | 81.2% and 82.3% | 86.4% and 90.7% | –
4560 nM and 3720 nM | Cc1nc(NC(=O)N2CCCC2C(N)=O)sc1-c1ccnc(C(C)(C)C(F)(F)F)c1 (configuration not stated) | 83.2% and 92.5% | 64.2% and 84.5% | 59.4% and 74% | 70.8% and 73.5% | – | – | – | – | viability, T/C (compound 3.16 µM): 58.1% and 52.5%; viability, T/C (compound 10 µM): 34.1% and 30.3%
41.6 nM and 87.7 nM | Cn1cnc2c(F)c(Nc3ccc(Br)cc3Cl)c(C(=O)NOCCO)cc21 | – | – | – | – | – | – | – | – | viability, T/C (compound 0.00949 µM): 66.3% and 85.1%; viability, T/C (compound 0.03 µM): 54.9% and 61.7%; viability, T/C (compound 0.0949 µM): 38.7% and 44.3%; viability, T/C (compound 0.3 µM): 31.6% and 43.3%; viability, T/C (compound 0.949 µM): 25.7% and 30%; viability, T/C (compound 3 µM): 14.6% and 16.5%

The next lines start with the compound.

Structure (SMILES) | IC50 (curve of compound) | viability, T/C (compound 0.0316 µM) | viability, T/C (compound 0.1 µM) | viability, T/C (compound 0.316 µM) | viability, T/C (compound 1 µM) | viability, T/C (compound 0.000316 µM) | viability, T/C (compound 0.001 µM) | viability, T/C (compound 0.00316 µM) | viability, T/C (compound 0.01 µM) | also measured
CC(C)CC(NC(=O)C(Cc1ccccc1)NC(=O)c1cnccn1)B(O)O (configuration not stated) | 5.54 nM and 5.47 nM | – | – | – | – | 96.1% and 93.2% | 88.4% and 100% | 103% and 93% | 4.87% and 2.64% | viability, T/C (compound 31.6 pM): 94% and 103%; viability, T/C (compound 0.0001 µM): 82.3% and 99.8%
CC(C)CC(NC(=O)CNC(=O)c1cc(Cl)ccc1Cl)B1OC(=O)CC(CC(=O)O)(C(=O)O)O1 (configuration not stated) | 42 nM and 31.6 nM | 65.7% and 50.1% | 2.27% and 1.64% | – | – | 111% and 81.1% | 73.9% and 80.3% | 90.1% and 80% | 111% and 82.8% | –
CC(C)NCC(C(=O)N1CCN(c2ncnc3c2C(C)CC3O)CC1)c1ccc(Cl)cc1 (configuration not stated) | – | – | – | – | – | – | – | – | – | viability, T/C (compound 30 µM): 84.2% [middle of 10 runs]; IC50 (compound alone, run of 02/20/2020): > 30000 nM
CCCS(=O)(=O)Nc1ccc(F)c(C(=O)c2c[nH]c3ncc(-c4ccc(Cl)cc4)cc23)c1F | > 100000 nM | – | – | 98.6% and 98.4% | 97.2% and 95.1% | – | – | – | – | viability, T/C (compound 3.16 µM): 94.6% and 78.2%; viability, T/C (compound 10 µM): 108% and 71%; viability, T/C (compound 31.6 µM): 82.2% and 67.9%; viability, T/C (compound 100 µM): 90.6% and 82.5%
COC1CC2CCC(C)C(O)(O2)C(=O)C(=O)N2CCCCC2C(=O)OC(C(C)CC2CCC(OCCO)C(OC)C2)CC(=O)C(C)C=C(C)C(O)C(OC)C(=O)C(C)CC(C)C=CC=CC=C1C (configuration not stated) | > 100 nM | 109% and 117% | 102% and 85.5% | – | – | 103% | 77.4% and 84.4% | 75.2% and 91.7% | 90.3% and 101% | –
COc1c(OCCCN2CCOCC2)ccc2c3n(c(=NC(=O)c4cnc(N)nc4)nc12)CCN3 | 22.6 nM and 25.2 nM | 41.4% and 50.6% | 26.5% and 25.3% | 14.9% and 13.6% | 10% and 10.6% | – | – | 87.5% and 86.9% | 67.9% and 63.5% | –
